Assays:
PKC Beta I = PKC Beta I (Homo sapiens, UniProt P05771); test: Protein Kinase C histone-based assay, PKC beta I; type: biochemical; details: histone substrate, 30 μM ATP, 10 min at 30° C.
[1] = molecular target: T1, recombinant rabbit GSK-3β protein (Oryctolagus cuniculus, UniProt G1T8E2); test: Glycogen Synthase Kinase-3 assay; type: biochemical; details: PPI-2 substrate, 33P-ATP, 90 minutes at 30° C.
T1 construct: purchased New England Biolabs
Protocol: Glycogen Synthase Kinase-3 Assay
Compounds were tested for the ability to inhibit recombinant rabbit GSK-3β protein using the following protocol. The test compound was added to a reaction mixture containing Protein phosphatase inhibitor-2 (PPI-2) (Calbiochem) (45 ng), rabbit GSK-3β protein (New England Biolabs) (0.75 units) and ^33P-ATP (1 μCi) in 50 mM Tris-HCl (pH 8.0), 10 mM MgCl2, 0.1% BSA, 1 mM DTT and 100 μM Sodium Vanadate. The mixture was reacted for 90 minutes at 30° C. to allow phosphorylation of the PPI-2 protein and then the protein in the reaction was precipitated using 10% TCA. The precipitated protein was collected on filter plates (MultiScreen-DV/Millipore), which were subsequently washed. Finally, the radioactivity was quantified using a TopCount Scintillation Counter (Packard). […] Staurosporine or Valproate, known inhibitors of GSK-3β, were used as a positive control for screening.

PKC isoform γ = PKC isoform γ (Homo sapiens, UniProt P05129); test: Protein Kinase C histone-based assay, PKC gamma; type: biochemical; details: histone substrate, 30 μM ATP, 10 min at 30° C.
Protocol: (§1) Protein Kinase C Histone-Based Assay
(§2) Compounds were evaluated for PKC selectivity using histone III as the substrate. The PKC isoforms α, β-II or γ were added to a reaction mixture containing 20 mM HEPES, (pH 7.4), […] CaCl2, 10 mM MgCl2, 1 mM EGTA. 100 μg/mL phosphatidylserine, 20 μg/mL diacylglycerol, 30 μM ATP, 1 μCi (^33P)ATP, and 200 μg/mL […]. The reaction was incubated for 10 min at 30° C. Reactions were terminated by TCA precipitation and spotting on Whatman P81 filters. Filters were washed in 75 mM phosphoric acid and the radioactivity quantified by liquid scintillation counting.

PKC isoform α = PKC isoform α (Homo sapiens, UniProt P17252); test: Protein Kinase C histone-based assay, PKC alpha; type: biochemical; details: histone substrate, 30 μM ATP, 10 min at 30° C.
Protocol: as §1, §2

PKC isoform β-II = PKC isoform β-II (Homo sapiens, UniProt P05771); test: Protein Kinase C histone-based assay, PKC beta II; type: biochemical; details: histone substrate, 30 μM ATP, 10 min at 30° C.
Sequence of PKC isoform β-II (P05771 1-673 isoform P05771-2): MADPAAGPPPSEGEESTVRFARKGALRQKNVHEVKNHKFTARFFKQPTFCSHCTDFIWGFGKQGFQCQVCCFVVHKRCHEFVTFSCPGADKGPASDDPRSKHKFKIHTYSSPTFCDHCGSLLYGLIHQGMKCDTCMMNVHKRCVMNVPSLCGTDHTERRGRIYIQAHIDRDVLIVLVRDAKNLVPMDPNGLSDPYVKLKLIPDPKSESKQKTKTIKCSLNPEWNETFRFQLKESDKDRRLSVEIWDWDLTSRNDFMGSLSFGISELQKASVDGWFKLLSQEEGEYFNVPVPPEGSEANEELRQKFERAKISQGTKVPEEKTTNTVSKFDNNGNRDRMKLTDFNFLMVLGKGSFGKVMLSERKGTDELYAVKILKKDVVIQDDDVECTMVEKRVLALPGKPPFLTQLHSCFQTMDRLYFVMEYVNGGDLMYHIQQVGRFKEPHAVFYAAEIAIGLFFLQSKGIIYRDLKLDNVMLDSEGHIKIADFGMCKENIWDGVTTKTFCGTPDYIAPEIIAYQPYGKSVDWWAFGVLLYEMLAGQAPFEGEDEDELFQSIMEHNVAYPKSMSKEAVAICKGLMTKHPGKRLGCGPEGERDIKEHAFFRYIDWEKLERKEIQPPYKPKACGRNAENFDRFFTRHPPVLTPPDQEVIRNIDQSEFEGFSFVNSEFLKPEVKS
Protocol: as §1, §2

[2] = tested on: retinal neovascularization; test: Murine retinopathy in-vivo model (oxygen-induced retinopathy); set-up: species or system mouse; details: 60 mg/kg
Text: Murine Retinopathy In-Vivo Model
The methods used in this model are known to those skilled in the art and are referenced in the scientific literature, such as Smith, L. E., Wesolowski, E., McLellan, A., Kostyk, S. K., D'Amato, R., Sullivan, R., and D'Amore, P. A. “Oxygen-induced retinopathy in the mouse”. Invest. Ophthalmol. Vis. Sci., 1994, January; 35(1): 101-11.

Sequence of PKC Beta I (P05771 whole entry): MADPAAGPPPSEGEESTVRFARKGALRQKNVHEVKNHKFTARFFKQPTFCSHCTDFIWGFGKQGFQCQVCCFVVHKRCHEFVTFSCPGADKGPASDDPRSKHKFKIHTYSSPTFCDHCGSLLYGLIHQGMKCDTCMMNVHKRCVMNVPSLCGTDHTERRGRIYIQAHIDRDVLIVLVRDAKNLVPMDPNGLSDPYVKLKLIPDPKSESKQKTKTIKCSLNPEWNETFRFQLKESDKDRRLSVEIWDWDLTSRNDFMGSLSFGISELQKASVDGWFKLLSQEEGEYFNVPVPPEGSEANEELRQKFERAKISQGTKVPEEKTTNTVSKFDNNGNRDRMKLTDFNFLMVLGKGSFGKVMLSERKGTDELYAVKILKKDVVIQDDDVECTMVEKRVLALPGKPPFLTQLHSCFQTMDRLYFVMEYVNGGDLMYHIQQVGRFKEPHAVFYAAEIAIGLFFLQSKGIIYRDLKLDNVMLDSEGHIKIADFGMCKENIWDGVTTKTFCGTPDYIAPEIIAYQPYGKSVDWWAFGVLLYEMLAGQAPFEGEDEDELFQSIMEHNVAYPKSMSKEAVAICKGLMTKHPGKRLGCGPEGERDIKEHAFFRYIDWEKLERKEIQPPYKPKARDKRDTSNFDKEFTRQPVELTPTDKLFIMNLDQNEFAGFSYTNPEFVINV
T1 sequence (G1T8E2 1-432): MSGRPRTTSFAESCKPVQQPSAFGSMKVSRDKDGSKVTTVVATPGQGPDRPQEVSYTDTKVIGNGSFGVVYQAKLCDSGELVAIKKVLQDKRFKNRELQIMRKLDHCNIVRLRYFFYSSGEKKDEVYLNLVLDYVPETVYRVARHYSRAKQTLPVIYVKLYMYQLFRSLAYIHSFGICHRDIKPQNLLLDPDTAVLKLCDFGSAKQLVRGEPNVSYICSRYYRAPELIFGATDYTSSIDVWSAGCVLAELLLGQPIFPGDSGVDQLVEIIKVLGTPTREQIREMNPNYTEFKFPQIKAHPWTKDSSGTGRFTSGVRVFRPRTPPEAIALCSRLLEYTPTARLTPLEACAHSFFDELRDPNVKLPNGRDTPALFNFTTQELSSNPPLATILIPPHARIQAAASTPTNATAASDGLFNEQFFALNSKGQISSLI

| IC50 (PKC Beta I) | IC50 [1] | IC50 (PKC isoform γ) | IC50 (PKC isoform α) | IC50 (PKC isoform β-II) | SMILES | retinal neovascularization [2] |
| --- | --- | --- | --- | --- | --- | --- |
| 9 nM | 5 nM | 360 nM | 160 nM | 6 nM | O=C1NC(=O)C2=C1c1cn(c3ccccc13)CCNCCSCCNCCn1cc2c2ccccc21 [Compound 1, 10,11,12,13,14,16,17,18,19,20-decahydro-15-thio-2,9,12,18,21-pentaaza-1H-diindolo[1,2,3-m,n:3′,2′,1′-r,s]cyclononadec-14,16,18-trien[16,17-c]-pyrrole-2,5-dione] |  |
| 27 nM | 6 nM | 1560 nM | 490 nM | 41 nM | CN1CCOCCN(C)CCn2cc(c3ccccc32)C2=C(C(=O)NC2=O)c2cn(c3ccccc23)CC1 [Compound 2, 12,18-dimethyl-10,11,12,13,14,16,17,18,19,20-decahydro-15-oxa-2,9,12,18,21-pentaaza-1H-diindolo[1,2,3-m,n:3′,2′,1′-r,s]cyclononadec-14,16,18-trien[16,17-c]-pyrrole-2,5-dione] |  |
| 9 nM | 7 nM | 5840 nM | 330 nM | 13 nM | O=C1NC(=O)C2=C1c1cn(c3ccccc13)CCNCCOCCNCCn1cc2c2ccccc21 [Compound 3, 10,11,12,13,14,16,17,18,19,20-decahydro-15-oxa-2,9,12,18,21-pentaaza-1H-diindolo[1,2,3-m,n:3′,2′,1′-r,s]cyclononadec-14,16,18-trien[16,17-c]-pyrrole-2,5-dione] | inhibited retinal neovascularization |
| 6 nM |  | 1200 nM | 280 nM | 8 nM | CN1CCOCCNCCn2cc(c3ccccc32)C2=C(C(=O)NC2=O)c2cn(c3ccccc23)CC1 [Compound 4, 18-methyl-10,11,12,13,14,16,17,18,19,20-decahydro-15-oxa-2,9,12,18,21-pentaaza-1H-diindolo[1,2,3-m,n:3′,2′,1′-r,s]cyclononadec-14,16,18-trien[16,17-c]-pyrrole-2,5-dione] |  |
